# Source: patent publication US20220143003A1, “COMPOSITIONS AND METHODS TO TREAT NON-ALCOHOLIC FATTY LIVER DISEASES (NAFLD)” (Coherus Biosciences, Inc., priority 2018, published 2022)
# Entries after “also recorded” stand apart in the source; their conditions may differ.
# Legend:
# Type in all cases: in vivo, male C57BL/6JRj mice
# DIO-NASH mice [1] = assay: Liver steatosis (liver lipid) quantified by morphometry on HE slides; conditions: terminal, group mean
# Experimental: (§1) For Hematoxylin & Eosin (HE) staining, slides were incubated in Mayer's Hematoxylin, washed in tap water, stained in Eosin Y solution, […], mounted with Pertex and allowed to dry before scanning.
# Quantitative assessment of steatosis is evaluated as follows. Steatosis is quantified on H&E stained slides by image analysis using the Visiomorph software (Visiopharm, Denmark). Visiomorph protocols are designed to analyze the virtual slides in two steps: 1. Crude detection of tissue at low magnification (1× objective). 2. Detection of steatosis (pink) and tissue (blue) at high magnification (20× objective). The quantitative estimate of steatosis is calculated as an area fraction (AF) according to the following formula:
# Terminal liver steatosis (i.e. liver lipid) was quantified by morphometry. Relative liver steatosis is denoted in % fractional area. Values expressed as mean of n=12-14+SEM.
# Total liver steatosis is denoted in milligrams (% fractional area multiplied with liver weight). Values expressed as mean of n=12-14+SEM.
# DIO-NASH mice [2] = assay: Plasma total cholesterol (TC) at termination; conditions: for Plasma total cholesterol (TC) at termination: group mean
# Experimental: (§2) For plasma biochemistry, tail blood was drawn directly through the capillary of a Microvette/Vacuette of the right dimension and anticoagulant and mixed by inversion 5 times. Blood was placed at 4° C. until centrifugation at 3000×g for 10 minutes at 4° C. The plasma supernatants were transferred to new tubes and immediately frozen on dry ice and stored at −80° C. until analysis.
# (§3) Mouse insulin was measured in single determinations using the MSD platform (Meso Scale Diagnostics).
# Plasma total cholesterol (TC) at termination (mmol/L). Values expressed as mean of n=12-14+SEM.
# DIO-NASH mice [3] = assay: Plasma aspartate transaminase (AST) at termination; conditions: group mean
# Experimental: as §2, §3
# Plasma aspartate transaminase (AST) at termination (U/L). Values expressed as mean of n=11-14+SEM.
# DIO-NASH mice [4] = assay: Absolute and relative body weight, measured daily and at termination; conditions: for Absolute body weight at termination / Terminal relative body weight, percentage of starting body weight: group mean; for Terminal relative body weight, percentage of starting body weight: day 83/84/85, baseline day 0=100%
# Experimental: The Diet-induced-obesity (DIO)-NASH mouse model was induced by feeding male C57BL/6JRj mice a high fat diet containing 40% fat with trans-fat, 20% fructose and 2% cholesterol (AMLN diet or D09100301, Research Diets Inc., USA). Induction of NASH was started at 5 weeks of age and mice were fed the AMLN diet for 36 weeks prior to study start resulting in NASH, which was confirmed by pre-biopsy prior to study start as described below.
# Absolute body weight, BW, (g) was measured daily throughout the study period. Values expressed as mean of n=11-14+SEM (see FIG. 1).
# Absolute body weight at termination (measured day 83/84/85). Values expressed as mean of n=12-14+SEM.
# Relative BW, recorded as percentage of starting body weight (baseline day 0=100%), was measured daily throughout the study period. Values expressed as mean of n=11-14+SEM (see FIG. 2).
# Terminal relative body weight (measured day 83/84/85), recorded as percentage of starting body weight (baseline day 0=100%). Values expressed as mean of n=12-14+SEM.
# DIO-NASH mice [5] = assay: NAFLD Activity Score (steatosis, lobular inflammation, ballooning), pre- to post-biopsy histopathological scoring; conditions: for Delta change in NAFLD activity score from pre- to post biopsy: group mean; for NAFLD activity score (NAS), effect in words: 12 weeks of treatment, compared to NASH vehicle+vehicle, summary of data
# Experimental: Three weeks prior to study start, a pre-biopsy was performed to confirm NASH and for study inclusion of NASH-affected mice only. Briefly, mice were anesthetized with isoflurane (2-3%) in 100% oxygen. A small abdominal incision was made in the midline and the left lateral lobe of the liver exposed. A cone shaped wedge of liver tissue (approximately 50 mg) was excised from the distal portion of the lobe and fixated in 10% neutral buffered formalin (4% formaldehyde) for histopathological analyses. The cut surface of the liver was instantly electro-coagulated using bipolar coagulation (ERBE VIO 100 electrosurgical unit). The liver was returned to the abdominal cavity, the abdominal wall sutured, and the skin closed with staplers. For post-operative recovery, mice received carprofen (5 mg/ml-0.01 ml/10 g) administered subcutaneously on the day of operation and on post-operation day 1 and 2.
# as §1
# For scoring of NAFLD Activity Score (NAS) and fibrosis stage, HE and Sirius red stained liver sections, respectively, were scored by a histopathology specialist as outlined in Table 10 using the clinical criteria outlined by Kleiner et al. (2005). Total NAS score represents the sum of scores for steatosis, lobular inflammation, and ballooning degeneration scores, and ranges from 0-8.
# For steatosis score, percentage refers to percentage of hepatocytes affected by steatosis as evaluated on low to medium power examination.
# For lobular inflammation, inflammation is evaluated by counting the number of inflammatory foci per field using a 200× magnification (min. 5 fields per animal). A focus is defined as a cluster, not a row, of >3 inflammatory cells. Acidophil bodies are not included in this assessment, nor is portal inflammation.
# For hepatocellular ballooning degeneration, degenerated hepatocytes with a cleared cytoplasm, enlargement, swelling, rounding and reticulated cytoplasm were identified.
# Delta change in NAFLD activity score from pre-to post biopsy. Values expressed as mean of n=12-14+SEM.
# DIO-NASH mice [6] = assay: Liver triglycerides (TG) at termination; conditions: group mean
# Experimental: The liver post-biopsy for histological analyses was removed by dissection from the left lateral lobe, fixated in 4% formalin for 20-24 h, and subsequently embedded in paraffin. Liver biopsies for liver triglycerides and total cholesterol were dissected from the medial lobe, snap frozen in liquid nitrogen, and stored at −80° C., while liver biopsies for hydroxyproline were dissected from the caudal lobe (the entire lobe), snap frozen in liquid nitrogen and stored at −80° C. Finally, a liver sample for RNA isolation and gene expression analysis was dissected from the left lateral lobe, snap frozen in liquid nitrogen, and stored at −80° C. until processing.
# For liver TG and TC quantification, samples were homogenized, and TG and TC extracted in 5% NP-40 by heating twice to 90° C. The samples were centrifuged, and the TG and TC content measured in the supernatant, using commercial kits (Roche Diagnostics) on the Cobas c501 autoanalyzer according to the manufacturer's instructions.
# Relative (mg/g of liver) liver triglycerides (TG) at termination. Values expressed as mean of n=12-14+SEM.
# Total (mg/liver) liver triglycerides (TG) at termination. Values expressed as mean of n=12-14+SEM.
# [7] = CHS-131 High dose (alone or combined)
# [8] = day 83/84/85, CHS-131 High 30 mg/kg, empagliflozin 10 mg/kg, elafibranor 30 mg/kg PO, liraglutide 0.4 mg/kg SC, QD
# [9] = CHS-131 High 30 mg/kg, empagliflozin 10 mg/kg, elafibranor 30 mg/kg PO, liraglutide 0.4 mg/kg SC, QD
# [10] = DIO-NASH mice, compared to vehicle only, non-significant
smiles,measurement,setting,value
"CSc1ccc(C(=O)/C=C/c2cc(C)c(OC(C)(C)C(=O)O)c(C)c2)cc1 [Elafibranor, reference compound]",Relative liver steatosis (liver lipid) by morphometry,DIO-NASH mice [1]; [7],7.21 % fractional area
same,Total liver steatosis (% fractional area multiplied with liver weight),DIO-NASH mice [1]; [7],322 milligrams
same,Plasma total cholesterol (TC) at termination,DIO-NASH mice [2]; [7],5.75 mmol/L
same,Plasma aspartate transaminase (AST) at termination,DIO-NASH mice [3]; [7],205 U/L
same,Absolute body weight at termination,DIO-NASH mice [4]; [8],31.8 grams
same,"Terminal relative body weight, percentage of starting body weight",DIO-NASH mice [4]; [9],86.5%
same,Delta change in NAFLD activity score from pre- to post biopsy,DIO-NASH mice [5]; [7],−2.00
same,Relative liver triglycerides (TG) at termination,DIO-NASH mice [6]; [7],45.2 mg/g of liver
same,Total liver triglycerides (TG) at termination,DIO-NASH mice [6]; [7],196 mg/liver
O=S(=O)(Nc1cc(Cl)c(Oc2cnc3ccccc3c2)c(Cl)c1)c1ccc(Cl)cc1Cl [CHS-131],Relative liver steatosis (liver lipid) by morphometry,DIO-NASH mice [1]; [7],23.1 % fractional area
same,Total liver steatosis (% fractional area multiplied with liver weight),DIO-NASH mice [1]; [7],758 milligrams
same,Relative liver steatosis (liver lipid) by morphometry,DIO-NASH mice [1]; CHS-131 Low dose,26.4 % fractional area
same,Total liver steatosis (% fractional area multiplied with liver weight),DIO-NASH mice [1]; CHS-131 Low dose,826 milligrams
same,"Plasma TC, effect in words","DIO-NASH mice [2]; DIO-NASH mice, 12 weeks of treatment, summary of data",reduced
same,Decrease of plasma cholesterol,"DIO-NASH mice [2]; DIO-NASH mice, compared to DIO mice administered vehicle only, significant, not in a dose response manner",~12%
same,Plasma total cholesterol (TC) at termination,DIO-NASH mice [2]; [7],6.38 mmol/L
same,Plasma total cholesterol (TC) at termination,DIO-NASH mice [2]; CHS-131 Low dose,6.45 mmol/L
same,Plasma aspartate transaminase (AST) at termination,DIO-NASH mice [3]; [7],166 U/L
same,Plasma aspartate transaminase (AST) at termination,DIO-NASH mice [3]; CHS-131 Low dose,189 U/L
same,"Body weight, effect in words",DIO-NASH mice [4]; compared to DIO mice administered vehicle only,tends to reduce
same,Absolute body weight at termination,DIO-NASH mice [4]; [8],38.2 grams
same,Absolute body weight at termination,"DIO-NASH mice [4]; day 83/84/85, CHS-131 Low 10 mg/kg PO QD",38.2 grams
same,"Terminal relative body weight, percentage of starting body weight",DIO-NASH mice [4]; [9],102%
same,"Terminal relative body weight, percentage of starting body weight",DIO-NASH mice [4]; CHS-131 Low 10 mg/kg PO QD,103%
same,"NAFLD activity score (NAS), effect in words",DIO-NASH mice [5]; DIO-NASH mice,reduced NAS; also recorded: significant improvement
same,Improvement of average NAFLD activity score (NAS) post-baseline,"DIO-NASH mice [5]; DIO-NASH mice, CHS-131 monotherapy, significant, on average",more than 1 unit
same,Improvement of ballooning,DIO-NASH mice [5]; [10],~10%
same,Improvement of steatosis,DIO-NASH mice [5]; [10],approximately 30%
same,Improvement of lobular inflammation,"DIO-NASH mice [5]; DIO-NASH mice, compared to vehicle only, non-significant (p=0.07)",50%
same,NAFLD score: mice with improvement,"DIO-NASH mice [5]; DIO-NASH mice, post- vs pre-study biopsy, significant",7/13
same,Delta change in NAFLD activity score from pre- to post biopsy,DIO-NASH mice [5]; [7],−0.77
same,Delta change in NAFLD activity score from pre- to post biopsy,DIO-NASH mice [5]; CHS-131 Low dose,−0.23
same,Relative liver triglycerides (TG) at termination,DIO-NASH mice [6]; [7],92.9 mg/g of liver
same,Total liver triglycerides (TG) at termination,DIO-NASH mice [6]; [7],300 mg/liver
same,Relative liver triglycerides (TG) at termination,DIO-NASH mice [6]; CHS-131 Low dose,96.7 mg/g of liver
same,Total liver triglycerides (TG) at termination,DIO-NASH mice [6]; CHS-131 Low dose,306 mg/liver
"OC[C@H]1O[C@@H](c2ccc(Cl)c(Cc3ccc(O[C@H]4CCOC4)cc3)c2)[C@H](O)[C@@H](O)[C@@H]1O [Empagliflozin, reference compound]",Relative liver steatosis (liver lipid) by morphometry,DIO-NASH mice [1]; [7],27.2 % fractional area
same,Total liver steatosis (% fractional area multiplied with liver weight),DIO-NASH mice [1]; [7],923 milligrams
same,Plasma total cholesterol (TC) at termination,DIO-NASH mice [2]; [7],7.62 mmol/L
same,Plasma aspartate transaminase (AST) at termination,DIO-NASH mice [3]; [7],230 U/L
same,Absolute body weight at termination,DIO-NASH mice [4]; [8],39.6 grams
same,"Terminal relative body weight, percentage of starting body weight",DIO-NASH mice [4]; [9],107%
same,"NAFLD activity score (NAS), effect in words",DIO-NASH mice [5]; DIO-NASH mice,positive trend for improvement
same,Delta change in NAFLD activity score from pre- to post biopsy,DIO-NASH mice [5]; [7],−0.31
same,Relative liver triglycerides (TG) at termination,DIO-NASH mice [6]; [7],108 mg/g of liver
same,Total liver triglycerides (TG) at termination,DIO-NASH mice [6]; [7],368 mg/liver
